Source: ChEMBL document CHEMBL3751764, “Synthesis and in vitro antiproliferative activity of novel pyrazolo[3,4-d]pyrimidine derivatives” (Medchemcomm, 2015)
Active and inactive are the calls of the source. No cut-off for these calls is given here.

What was measured:
[1] = Cytotoxicity against human RPMI8226 cells after 72 hrs by SRB assay; type: functional; settings: RPMI-8226, 72 h
CCRF-CEM = assay: Cytotoxicity against human CCRF-CEM cells after 72 hrs by SRB assay; type: functional
[2] = Cytotoxicity against human COLO205 cells after 72 hrs by SRB assay; type: functional; settings: COLO 205, 72 h
[3] = Cytotoxicity against human LOXIMVI cells after 72 hrs by SRB assay; type: functional; settings: LOX IMVI
SK-MEL-5 = assay: Cytotoxicity against human SK-MEL-5 cells after 72 hrs by SRB assay; type: functional; settings: SK-MEL-5, 72 h
[4] = Cytotoxicity against human OVCAR3 cells after 72 hrs by SRB assay; type: functional; settings: OVCAR-3, 72 h
A549 = assay: Cell cycle arrest in human A549 cells assessed as accumulation at G0/G1 phase at IC50 after 48 hrs by FACS flow cytometric analysis relative to control; type: functional
[5] = target: Platelet-derived growth factor receptor (Homo sapiens) (UniProt P09619+P16234); assay: Inhibition of PDGFR (unknown origin) at 10 uM after 20 to 40 mins by liquid scintillation counting analysis in presence of […]; type: protein-complex assay
[6] = read-out: LC50 (the source's name)

Compound | GI50 [1] [µM] | TGI [1] [µM] | CC50 [1, 6] [µM] | GI50 (CCRF-CEM) [µM] | TGI (CCRF-CEM) [µM] | CC50 (CCRF-CEM; [6]) [µM] | GI50 [2] [µM] | TGI [2] [µM] | CC50 [2, 6] [µM] | GI50 [3] [µM] | TGI [3] [µM] | CC50 [3, 6] [µM] | GI50 (SK-MEL-5) [µM] | TGI (SK-MEL-5) [µM] | CC50 (SK-MEL-5; [6]) [µM] | GI50 [4] [µM] | TGI [4] [µM] | CC50 [4, 6] [µM] | Activity (A549) [%] | inhibition [5]
O=C(NC1CCCCC1)c1ccc(Nc2ncnc3c2cnn3-c2ccccc2)cc1 | > 100 | > 100 | > 100 | > 100 | > 100 | > 100 | 12.5 | > 100 | > 100 | 4.49 | 22.3 | > 100 | 21.7 | > 100 | > 100 | 14.3 | > 100 | > 100 | 11.9 | 
O=c1sc2cc(Nc3ncnc4c3cnn4-c3ccccc3)ccc2n1Cc1ccc(Cl)cc1 |  |  |  |  |  |  |  |  |  |  |  |  |  |  |  |  |  |  |  | inactive
